Data: patent US20030144212A1, “USE OF SERINE PROTEASE INHIBITORS TO INHIBIT PATHOPHYSIOLOGY AND NEUROPATHOLOGY IN A HOST” (priority 2000, published 2003)

Tests used:
[1] = tested on: CAM75 (75 kDa cell adhesion molecule fragment) generation by serine protease; test: Incubation of hippocampal homogenates, CAM75 fragment by immunoblot; assay type: biochemical, rat; settings: membranes incubated for one hour with 500 μM inhibitor; controls 45±8%; n=3-5, p=0.03
Procedure: Hippocampi were rapidly extracted from adult male Sprague-Dawley rats and submerged in ice-cold buffer (10 mM Tris-base, 100 mM NaCl; pH 7.4) homogenized on ice for 1 min in 5 mls of the same buffer and then centrifuged for 3 min. at 1000 g (4° C.). The pellet was discarded and the resulting supernatant was immediately incubated at 37° C. with or without EDTA, EGTA, or AEBSF. After incubation, samples were ultracentrifuged (as above) and processed for immunoblotting. Quantification of immunoblots was performed by densitometry with normalization of the immunoreactivity levels at 0 minutes to 100 percent (n=4 or 5; mean±S.E.M. for all time points).
Similar results are obtained with brain homogenates, where a 65 kDa fragment and CAM75 are produced upon incubation in the presence of EDTA or EGTA (see FIG. 1). As noted, fragments similar in size to CAM75 are generated by cleavage of any of several NCAM relatives by serine-type proteases. That CAM75 also arises from an enzyme of this type was confirmed with the selective inhibitor 4-(2-Aminoethyl)-benzenesulfonyl fluoride (AEBSF); a 12±8% increase in the fragment occurred in membranes incubated for one hour with 500 μM of the inhibitor while a 45±8% increase was obtained in controls (n=3-5; p=0.03).

[2] = tested on: endogenous protease(s) found in hippocampal ultrasupernatants; test: Cleavage of fluorescent AMC substrates by hippocampal ultrasupernatants; assay type: biochemical, rat; settings: 100 μM substrate
Procedure: Hippocampi were rapidly extracted from adult male Sprague-Dawley rats and submerged in ice-cold artificial cerebrospinal fluid (aCSF) which consisted of (in mM): 124 NaCl, 3 KCl, 1.25 KH2PO4, 2.5 MgSO4, 3.4 CaCl2, 26 NaHCO3 and 10 glucose (pH 7.4), homogenized on ice for 1 min in 3 mls of the same buffer and then centrifuged for 5 min. at 1000 g (3° C.). The pellet was discarded and the resulting supernatant was ultracentrifuged at 200,000 g for 20 min. at 3° C. in a TLS-55 rotor (Beckman Instruments). The resulting ultrasupematant fraction was devoid of membrane-bound proteins and therefore represents a soluble protein fraction. This fraction was diluted to 50 μgs/ml in aCSF and incubated at room temperature with 100 μM of arginine linked to a fluorescent amido methyl-coumarin (AMC) substrate (Sigma Chemical Co), or to […] (Enzyme Systems Products; Livermore Cailf.) in the presence of differing concentrations of the serine protease inhibitor AEBSF (4-(2-Aminoethyl)benzenesulfonyl fluoride) (Sigma Chemical Co). Fluorescence was measured in a fluorometer (Sequoia-Turner Corp.) at 430 nm with stimulation at 360 nm. Quantification of proteolytic inhibition was performed by normalization of fluorescence in control tubes (i.e. those without added AEBSF) to 0 percent.
The serine protease substrate arginine-AMC (A-AMC) and a substrate made up of the CAM serine protease target sequence (arginine-serine-lysine-arginine) (ASLA-AMC) were both cleaved when incubated with soluble protein fractions (i.e. ultrasupernatants) from the hippocampus. This assay was then used to identify drugs and dosages that prevent extracellular CAM cleavage by endogenous proteases. The serine protease inhibitor AEBSF (4-(2-Aminoethyl)-benzenesulfonyl fluoride) inhibited proteolysis of the CAM sequence (ASLA-AMC) and did so to a much greater degree than it blocked the proteolysis of A-AMC. At 250 and 1000 uM A-AMC cleavage was blocked by 15 and 33 percent, respectively, while ASLA-AMC proteolysis was blocked by 44 and 70 percent. FIG. 3 (p≦0.0001).

[3] = target: T1, tissue plasminogen activator (tPA) (Homo sapiens, UniProt P00750); test: Incubation of synthetic substrates with tPA; assay type: biochemical
T1 construct: purchased Sigma
Procedure: 1.5 μg/ml of tissue plasminogen activator (tPA, two chain, Sigma) was incubated at 23 ° C. with 40 μM ASLA- and A-AMC substrates (with or without the inhibitor AEBSF) in a final volume of 1.3 mls aCSF. After one hour of incubation the samples were put in the fluorometer and quantification of proteolytic activity normalized the readings from the A-AMC substrate to 100 (arbitrary units).

[4] = tested on: LTP in hippocampal slices (CA1 field EPSPs); test: Long-term potentiation in hippocampal slices (theta burst stimulation, field EPSPs); assay type: cell-based, rat
Procedure: Brains from male Sprague-Dawley rats (190-225 g) were rapidly removed and placed into ice cold aCSF. Hippocampi were then cut transversely into 400-μm slices and transferred to a recording chamber perfused with aCSF (35° C.), where they were exposed to a humidified gas mixture of 95% oxygen and 5% carbon dioxide. After an hour recovery period, field recordings were made with a glass recording electrode containing 2 M NaCl positioned in the stratum radiatum of CAlb. NAC (Eclectex Enterprises; Irvine Cailf.) was used to record field EPSPs elicited by delivering single stimulation pulses (0.1 ms, 1-15 μA) to one of two bipolar electrodes positioned in Schaffer-commissural projections in CAla and CAlc. Each projection was stimulated every 20 sec with 10 sec interval between each electrode. After establishing a stable baseline (10-20 min), LTP was induced using a theta burst stimulation (TBS) paradigm [J. Larson et al., Brain Res. 368, 347-350 (1986)] in one pathway. After 30 minutes the perfusion media was switched to one containing 250 μM AEBSF. Forty-five minutes later TBS was applied to the non-potentiated pathway. The AEBSF/aCSF mixture was perfused for an additional 10 minutes, after which regular aCSF was added. In another set of slices TBS stimulation was applied during aCSF perfusion, and five minutes after LTP induction 250 μM AEBSF was infused for the remainder of the experiment. Potentiation for all groups was tabulated as the percent increase above initial baseline slopes.
The magnitude of this effect varied considerably across slices but within slice differences between potentiation elicited before (control) vs. after (experimental) infusion of the drug could not be detected. However, the development of LTP in the minutes following induction was clearly different as is evident in FIG. 5A. […] Mean percent potentiation at this time point was 103±5% for experimental and 134±3% for control pathways (n=6, p=0.005).

[5] = tested on: seizure-proneness (after-discharge duration); test: Kindling by repeated electrical stimulation of hippocampus, after-discharge duration; assay type: in vivo, rat; settings: 50 mgs/kg injected once prior to first stimulation; tested 10 days later; control rats ~400%
Procedure: Rats were divided into two groups: Group I rats were injected with 50 mgs/kg AEBSF and Group II (control) rats were injected with saline. The rats of both groups were then stimulated by direct electrical impulses to the dentate gyrus region of the hippocampus (40 times/5 mins apart)(a paradigm known to promote “kindling”, which can be thought of as an increase in seizure-proneness). The after-discharge duration (AD-duration) was then measured in each group. After a 10 day waiting period, the rats were again stimulated (5 times/20 mins apart)(no drugs were administered). The AD-duration was again measured.

[6] = tested on: pre-existing seizure proneness (after-discharge duration); test: Restimulation of previously kindled rats (pre-existing seizure proneness), after-discharge duration; assay type: in vivo, rat; settings: AEBSF (50 mgs/ml) injection prior to stimulations
Excerpt: The control group rats from III, above, were restimulated, with four of the rats of this group receiving a saline injection prior to stimulation and the remaining four rats receiving AEBSF (50 mgs/ml) injection prior to stimulations. […] The AD duration average of the control group was 207±103% of their original average, while the AD duration of the AEBSF injected rats was 26±77% of their original average.

NMDA receptors = test: NMDA receptor stimulation of organotypic hippocampal cultures, CAM75 immunoblot; assay type: cell-based, rat
Excerpt: The culture medium (Bahr, et al. “Stable maintenance of glutamate receptors and other synaptic components in long-term hippocampal slices,” Hippocampus 5, 425-439 (1995))(CM) was changed every other day. Slices were maintained in culture for 2-3 weeks and then subjected to a brief NMDA receptor stimulation paradigm (Thibault et al., “Long-lasting physiological effects of bath applied N-methyl-D-aspartate,” Brain Res. 476, 170-173 (1989) and Malenka, “Postsynaptic factors control the duration of synaptic enhancement in area CA 1 of the hippocampus,” Neuron 6, 53-60 (1991)). To activate NMDA receptors the slices were treated with 400 μM NMDA, 2 ; mM CaCl2 (4 mM total) and 1 mM glycine. Control slices were also subjected to this cocktail but were first pretreated for 10 minutes with either 100 μM AP5 (an NMDA antagonist), or with kynurenic acid (2 mM) and MK-801 (100 μM), in CM. After 30 seconds of incubation with the NMDA cocktail, the solutions were removed and CM plus 2 mM AP5 was added to all slices. Tissue was harvested and processed for immunoblotting as described (See Bahr et al., supra). […] Protein concentrations for the non-soluble pellets (i.e. all tissue left after the supernatant was extracted) were determined with a BSA standard curve. […] Quantification of immunobands was determined without knowledge of sample type by densitometry.

[7] = tested on: CAM75 and Ng-CAM fragment in hippocampus; test: In vivo detection of NMDA receptor mediated CAM cleavage after kainate seizures; parameters: species or system rat
Procedure: Adult male rats were injected systemically with either: 10 mg/kg kainate (pH 7.4), 10 mg/kg kainate and 60 mg/kg ketamine (plus a second injection of 30 mg/kg ketamine one hour later), or saline. Behavioral responses were monitored (all animals in both sets injected with kainate reached seizure stages 4 or 5) and after two hours rats were anaesthetized, their hippocampi rapidly extracted and submerged in ice-cold buffer (10 mM Tris-base, 100 mM NaCl, 2 mM EDTA, and 2 mM EGTA; pH 7.4), homogenized on ice for 1 min in 5 mls of the same buffer, and then centrifuged for 3 min. at 1000 g (4° C.). The pellet was discarded and fractions of the resulting supernatants were immediately ultracentrifuged. Protein normalization and immunoblotting techniques were completed as described above. Quantification of CAM75 and the Ng-CAM fragment involved normalization of the immunoreactivity levels observed in saline injected rats to 100 percent (n=7-11; mean±S.E.M. for all groups).
Evidence for seizure induced extracellular cleavage at the consensus serine protease site was also obtained for a second adhesion molecule. Specifically, concentrations of an 80 kDa polypeptide detected by antibodies against Ng-CAM were increased by 603±140% (n=4, p=0.023) in ultrasupematant fractions from kainate injected rats.

T1 sequence (P00750 311-562 limits assumed, species assumed): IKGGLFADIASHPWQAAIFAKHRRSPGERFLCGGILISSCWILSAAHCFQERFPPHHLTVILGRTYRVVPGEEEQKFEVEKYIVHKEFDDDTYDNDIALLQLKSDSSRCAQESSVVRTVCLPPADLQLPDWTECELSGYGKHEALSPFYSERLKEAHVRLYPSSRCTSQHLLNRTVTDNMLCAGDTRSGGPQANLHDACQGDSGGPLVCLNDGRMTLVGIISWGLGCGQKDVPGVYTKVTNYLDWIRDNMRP
T1 sequence (P00750 36-310 partner limits assumed, species assumed): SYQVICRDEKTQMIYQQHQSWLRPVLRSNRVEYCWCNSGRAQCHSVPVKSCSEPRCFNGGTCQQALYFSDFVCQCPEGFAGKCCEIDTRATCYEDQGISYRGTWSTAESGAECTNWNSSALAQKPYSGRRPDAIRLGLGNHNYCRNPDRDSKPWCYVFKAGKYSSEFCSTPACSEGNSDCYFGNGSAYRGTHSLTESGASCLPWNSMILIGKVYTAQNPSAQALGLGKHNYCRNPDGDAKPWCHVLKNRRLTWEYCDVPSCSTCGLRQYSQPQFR

## NCCc1ccc(S(=O)(=O)F)cc1 [AEBSF, 4-(2-Aminoethyl)-benzenesulfonyl fluoride]
[1]
  increase in the CAM75 fragment: 12±8%
[2]; 250 uM AEBSF
  A-AMC cleavage blocked: 15%
  ASLA-AMC proteolysis blocked: 44%
[2]; 1000 uM AEBSF
  A-AMC cleavage blocked: 33%
  ASLA-AMC proteolysis blocked: 70%
[3]
  proteolytic activity of tPA blocked: potently blocked
[4]; 250 μM for 45 min before TBS, about one hour post-induction, control pathways 134±3%, n=6, p=0.005
  Mean percent potentiation: 103±5%
[4]; 250 μM infused five or thirty minutes after induction
  effect on already established LTP (potentiation over the subsequent hour): no effects on potentiation
[4]; 250 μM infused for forty-five minutes, before TBS
  effect on slope, amplitude, or waveform of monosynaptic field EPSPs: no significant effect
[5]
  increase in AD-duration during the second testing period: no increase in AD-duration
[6]; four rats
  rats with no after discharges (no seizure-like activity): Two out of the four
[6]; tested 10 days after, saline group 207±103%
  AD duration as percent of original average: 26±77%

## CN[C@H](CC(=O)O)C(=O)O [NMDA]
NMDA receptors; 30 seconds after a 30 second infusion of NMDA, n=12, p=0.0003
  concentration of CAM75 in soluble fractions versus control tissue: approximately twice
NMDA receptors; homogenates after 30 second infusion of NMDA, mean±sd, n=9, p<0.001
  amount of CAM75 greater than in slices exposed to NMDA and an antagonistic drug: 77±41%

## C=C(C)[C@H]1CN[C@H](C(=O)O)[C@H]1CC(=O)O [kainic acid]
[7]; single injection 10 mg/kg, about 45 minutes of periodic seizures, saline = 100 percent, n=11, p=0.0002
  CAM75 increase in the hippocampus: 598±85%
[7]; ultrasupernatant fractions from kainate injected rats, n=4, p=0.023
  increase of 80 kDa polypeptide detected by antibodies against Ng-CAM: 603±140%

## CNC1(c2ccccc2Cl)CCCCC1=O (centres unmarked) [ketamine]
[7]; 60 mg/kg plus 30 mg/kg one hour later with 10 mg/kg kainate, n=7, p=0.03
  effect on kainate-induced CAM75 increase: substantially reduced this effect
